Data as given in US11007385B2, “Use of cellular extracts for skin rejuvenation” (Regenics AS, priority 2012, dated 2021).
“And” between values parts separate entries of the source, which are not always exact repeats. Equal values may be shown once.

Key:
[1] = tested on: human skin fibroblasts (hSF); experiment: Collagen secretion from human skin fibroblasts (Biocolor Sircol collagen assay); assay type: cell-based; conditions: for Collagen Abs / Collagen/cell / Coll/cell % change: 8 days
Method: LEX 42 and different concentrations of retinoic acid (0.01M and 0.1M) are applied to fibroblasts (HsF cells) in vitro and collagen production and secretion is measured. Briefly, on day 0, fibroblasts are seeded in 25 cm^2 cell culture flasks at a density of 2.8×10^5 cells per flask. On day 1, the culture media is replaced with fresh culture media supplemented with 0.5% LEX, 0.01M RA, or 0.1M RA. Control cells are grown with cell culture medium without LEX or RA. The cultures are continued for seven days, with a media (LEX/RA/control) change at day 4. On day 8, the cells are washed 3× with PBS before adding cell culture medium with low serum (1% FBS). On day 9, the culture medium (1.4 ml) is harvested and collagen content assessed using a collagen kit (Biocolor, on eht world wide web at biocolor.co.uk/index.php/assay-kits/sircol-1/). The absorbance is measured with Nanodrop 2000c (Thermo).
LEX 51 was applied to fibroblasts (HsF cells) in vitro, and collagen production and secretion was assayed. The procedure was as described above, except with the modification of the assay on day 10, were 2 ml of the culture medium is harvested and collagen content assessed using a collagen kit (Biocolor, biocolor.co.uk/index.php/assay-kits/sircol-1/), with the adaptation of isolating collagen from 2 ml of culture medium compared to 1 ml as described in the kit manual. The absorbance is measured at 550 nm (the base line was set to 750 nm) with the Nanodrop 2000 (Thermo)
Collagen assay from Biocolor was used to analyze the effect of LEX on hSF (fibroblast). This assay measures the produced and secreted collagen from hSF (fibroblasts). The measurements from un-stimulated control was compared to LEX stimulated hSF (fibroblasts) and noted as fold induction.
The level of collagen was measured after 8 days of treatment with 0% or 0.5% reconstituted freeze dried salmon egg extract I in complete growth medium supplemented with 10% FBS. Ascorbic acid (1 μg/ml) and 0.5% salmon egg extract I was used as positive controls.

[2] = tested on: human skin fibroblasts (hSF); experiment: Proliferation / cell number of human skin fibroblasts; assay type: cell-based; parameters: increase in cell number: unit not given here; conditions: 8 days; for Cell % change: vs control

SMILES: CC1=C(/C=C/C(C)=C/C=C/C(C)=C/C(=O)O)C(C)(C)CCC1 [RA, retinoic acid]
- Collagen Abs ([1]; 0.01 μM RA): 0.046
- Collagen/cell ([1]; 0.01 μM RA): 4.7925E−08
- Coll/cell % change ([1]; 0.01 μM RA, vs control): −16.5%
- Collagen Abs ([1]; 0.1 μM RA): 0.046
- Collagen/cell ([1]; 0.1 μM RA): 5.077E−08
- Coll/cell % change ([1]; 0.1 μM RA, vs control): −11.5%
- decrease of collagen per cell ([1]; 0.1 μM RA, vs control): 11.5%
- decrease of collagen produced per cell ([1]; 0.01M RA, vs control): 16.5%
- fold change of collagen produced per cell compared to control cultures ([1]; RA cultures (0.01M and 0.1M), eight days): 0.84 and 0.89
- final # of cells ([2]; 0.01 μM RA): 959833
- Cell % change ([2]; 0.01 μM RA): 10.1%
- final # of cells ([2]; 0.1 μM RA): 906000
- Cell % change ([2]; 0.1 μM RA): 3.9%
- increase in cell number ([2]; 0.01M RA): 3.99
- increase in cell number compared to control ([2]; 0.1M RA): 10%
